These results are taken from patent US20070049593A1 (priority 2004, published 2007).

Where a name gives a salt, the structure may show the parent alone.

The experiment deals with T1, HCV polymerase (Hepatitis C virus genotype 1b, UniProt P26663).
T1 construct: a region encoding NS5B (J Virol 1991 March, 65(3), 1105-13, 544 amino acids after deletion of 47 amino acids on the C-terminal); 6xHis (C); made in house; host or cells: Escherichia coli
T1 sequence (P26663 2420-2963): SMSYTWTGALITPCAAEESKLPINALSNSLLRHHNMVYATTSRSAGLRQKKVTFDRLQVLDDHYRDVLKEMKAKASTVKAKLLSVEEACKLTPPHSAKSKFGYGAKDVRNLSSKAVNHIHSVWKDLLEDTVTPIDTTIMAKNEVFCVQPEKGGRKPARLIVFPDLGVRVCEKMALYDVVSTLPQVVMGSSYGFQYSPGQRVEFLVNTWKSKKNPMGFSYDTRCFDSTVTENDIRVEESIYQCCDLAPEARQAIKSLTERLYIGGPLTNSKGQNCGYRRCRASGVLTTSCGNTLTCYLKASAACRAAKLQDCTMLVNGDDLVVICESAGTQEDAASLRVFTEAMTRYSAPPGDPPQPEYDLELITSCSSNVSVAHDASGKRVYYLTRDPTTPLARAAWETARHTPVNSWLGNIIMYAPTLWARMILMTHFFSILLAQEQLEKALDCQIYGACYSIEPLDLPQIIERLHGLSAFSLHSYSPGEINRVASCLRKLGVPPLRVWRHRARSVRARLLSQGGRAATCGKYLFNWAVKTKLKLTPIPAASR
Nature of the experiment: biochemical. The arrangement: species or system HCV BK strain. The gist of the method: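 Recombinant HCV BK-strain NS5B (C-terminal 47 aa deleted, His6-tagged, E. coli), 0.5 μg/ml, run with 5 μg/ml in vitro-transcribed RNA template (polyU/3′X), ATP/GTP/CTP 50 μM, UTP 2 μM plus [3H]UTP, pH 7.5, 25° C, 90 min. TCA-precipitated RNA counted by scintillation; IC50 from activity with vs without compound.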
Usually IC50 stands for the concentration that gives 50% inhibition. In turn, `CC(C)N1CCCC(CCN2CCn3c(c(C4CCCCC4)c4ccc(C(=O)O)cc43)-c3ccc(Cl)cc32)C1` (stereo not shown) [Example 1-229, 3-chloro-13-cyclohexyl-5-[2-(1-isopropylpiperidin-3-yl)ethyl]-6,7-dihydro-5H-benzo[5,6][1,4]diazepino[7,1-a]indole-10-carboxylic acid dihydrochloride] returned a 50% inhibitory concentration (IC50) of less than 100 nM.

As for `CCCN1CCCC(CCN2CCn3c(c(C4CCCCC4)c4ccc(C(=O)O)cc43)-c3ccc(Cl)cc32)C1` (stereo not shown) [Example 1-230, 3-chloro-13-cyclohexyl-5-[2-(1-propylpiperidin-3-yl)ethyl]-6,7-dihydro-5H-benzo[5,6][1,4]diazepino[7,1-a]indole-10-carboxylic acid dihydrochloride], the IC50 is less than 100 nM.

Consider `CN(CCN1CCn2c(c(C3CCCCC3)c3ccc(C(=O)O)cc32)-c2ccccc21)C1CCCCC1` [Example 1-231, 13-cyclohexyl-5-[2-(N-cyclohexyl-N-methylamino)ethyl]-6,7-dihydro-5H-benzo[5,6][1,4]diazepino[7,1-a]indole-10-carboxylic acid], for which the IC50 was less than 100 nM.

As to `CS(=O)(=O)N1CCCN(CCN2CCn3c(c(C4CCCCC4)c4ccc(C(=O)O)cc43)-c3ccccc32)CC1` [Example 1-232, 13-cyclohexyl-5-[2-(4-methanesulfonyl-1,4-diazepan-1-yl)ethyl]-6,7-dihydro-5H-benzo[5,6][1,4]diazepino[7,1-a]indole-10-carboxylic acid dihydrochloride], the IC50 is less than 100 nM.

The compound `COC(=O)N1CCCN(CCN2CCn3c(c(C4CCCCC4)c4ccc(C(=O)O)cc43)-c3ccccc32)CC1` [Example 1-233, 13-cyclohexyl-5-[2-(4-methoxycarbonyl-1,4-diazepan-1-yl)ethyl]-6,7-dihydro-5H-benzo[5,6][1,4]diazepino[7,1-a]indole-10-carboxylic acid dihydrochloride] returned an IC50 of less than 100 nM.

Take `O=C(O)c1ccc2c(C3CCCCC3)c3n(c2c1)CCN(CCN1CCCCCC1)c1cc(F)ccc1-3` [Example 1-234, 5-[2-(azepan-1-yl)ethyl]-13-cyclohexyl-3-fluoro-6,7-dihydro-5H-benzo[5,6][1,4]diazepino[7,1-a]indole-10-carboxylic acid dihydrochloride]: the IC50 is less than 100 nM.

Consider `O=C(O)c1ccc2c(C3CCCCC3)c3n(c2c1)CC(=O)N(CCN1CCCCC1)c1ccccc1-3` [Example 1-235, 13-cyclohexyl-6-oxo-5-[2-(piperidin-1-yl)ethyl]-6,7-dihydro-5H-benzo[5,6][1,4]diazepino[7,1-a]indole-10-carboxylic acid monohydrochloride], for which the IC50 is less than 100 nM.

`COC(=O)N(C)CCN(C)CCN1CCn2c(c(C3CCCCC3)c3ccc(C(=O)O)cc32)-c2ccccc21` [Example 1-236, 13-cyclohexyl-5-(2-{N-[2-(N-methoxycarbonyl-N-methylamino)ethyl]-N-methylamino}ethyl)-6,7-dihydro-5H-benzo[5,6][1,4]diazepino[7,1-a]indole-10-carboxylic acid dihydrochloride]: the half-inhibitory concentration (IC50) was less than 100 nM.

For the compound `CC1CCN(CCN2CCn3c(c(C4CCCCC4)c4ccc(C(=O)O)cc43)-c3ccccc32)C1` (stereo not shown) [Example 1-237, 13-cyclohexyl-5-[2-(3-methylpyrrolidin-1-yl)ethyl]-6,7-dihydro-5H-benzo[5,6][1,4]diazepino[7,1-a]indole-10-carboxylic acid dihydrochloride], the IC50 is less than 100 nM.

`COC1CCN(CCN2CCn3c(c(C4CCCCC4)c4ccc(C(=O)O)cc43)-c3ccccc32)C1` (stereo not shown) [Example 1-238, 13-cyclohexyl-5-[2-(3-methoxypyrrolidin-1-yl)ethyl]-6,7-dihydro-5H-benzo[5,6][1,4]diazepino[7,1-a]indole-10-carboxylic acid dihydrochloride]: the half-maximal inhibitory concentration (IC50) was less than 100 nM.

As for `CCN1CCCN(C(=O)CN2CCn3c(c(C4CCCCC4)c4ccc(C(=O)O)cc43)-c3ccccc32)CC1` [Example 1-239, 13-cyclohexyl-5-[2-(4-ethyl-1,4-diazepan-1-yl)-2-oxoethyl]-6,7-dihydro-5H-benzo[5,6][1,4]diazepino[7,1-a]indole-10-carboxylic acid dihydrochloride], the half-maximal inhibitory concentration (IC50) was less than 100 nM.

`CC(C)N1CCC(CCN2CCn3c(c(C4CCCCC4)c4ccc(C(=O)O)cc43)-c3ccc(Cl)cc32)CC1` [Example 1-240, 3-chloro-13-cyclohexyl-5-[2-(1-isopropylpiperidin-4-yl)ethyl]-6,7-dihydro-5H-benzo[5,6][1,4]diazepino[7,1-a]indole-10-carboxylic acid dihydrochloride] displayed an IC50 of less than 100 nM.

As for `Cc1cccc2c1-c1c(C3CCCCC3)c3ccc(C(=O)O)cc3n1CCN2CCN1CCCCC1` [Example 1-241, 13-cyclohexyl-1-methyl-5-[2-(piperidin-1-yl)ethyl]-6,7-dihydro-5H-benzo[5,6][1,4]diazepino[7,1-a]indole-10-carboxylic acid dihydrochloride], the IC50 was less than 100 nM.

On to `O=C(O)c1ccc2c(C3CCCCC3)c3n(c2c1)CCN(CCCN1CCCCC1)c1cc(Cl)ccc1-3` [Example 1-242, 3-chloro-13-cyclohexyl-5-[3-(piperidin-1-yl)propyl]-6,7-dihydro-5H-benzo[5,6][1,4]diazepino[7,1-a]indole-10-carboxylic acid dihydrochloride], for which the IC50 was less than 100 nM.

Compound `CCN1CCC(CCN2CCn3c(c(C4CCCCC4)c4ccc(C(=O)O)cc43)-c3ccc(Cl)cc32)CC1` [Example 1-243, 3-chloro-13-cyclohexyl-5-[2-(1-ethylpiperidin-4-yl)ethyl]-6,7-dihydro-5H-benzo[5,6][1,4]diazepino[7,1-a]indole-10-carboxylic acid dihydrochloride] displayed an IC50 of less than 100 nM.

For `O=C(O)c1ccc2c(C3CCCCC3)c3n(c2c1)CCN(CCC1CCNCC1)c1cc(Cl)ccc1-3` [Example 1-244, 3-chloro-13-cyclohexyl-5-[2-(piperidin-4-yl)ethyl]-6,7-dihydro-5H-benzo[5,6][1,4]diazepino[7,1-a]indole-10-carboxylic acid dihydrochloride], the IC50 was less than 100 nM.

`O=C(O)c1ccc2c(C3CCCCC3)c3n(c2c1)CCN(CCCN1CCCCCC1)c1cc(Cl)ccc1-3` [Example 1-245, 5-[3-(azepan-1-yl)propyl]-3-chloro-13-cyclohexyl-6,7-dihydro-5H-benzo[5,6][1,4]diazepino[7,1-a]indole-10-carboxylic acid dihydrochloride]: the IC50 was less than 100 nM.

Compound `CN1CCC(CCN2CCn3c(c(C4CCCCC4)c4ccc(C(=O)O)cc43)-c3ccc(Cl)cc32)CC1` [Example 1-246, 3-chloro-13-cyclohexyl-5-[2-(1-methylpiperidin-4-yl)ethyl]-6,7-dihydro-5H-benzo[5,6][1,4]diazepino[7,1-a]indole-10-carboxylic acid dihydrochloride] yielded an IC50 of less than 100 nM.

Consider `CN(C)CCCN1CCn2c(c(C3CCCCC3)c3ccc(C(=O)O)cc32)-c2ccc(Cl)cc21` [Example 1-247, 3-chloro-13-cyclohexyl-5-(3-dimethylaminopropyl)-6,7-dihydro-5H-benzo[5,6][1,4]diazepino[7,1-a]indole-10-carboxylic acid dihydrochloride], for which the IC50 is less than 100 nM.
